Tested on: chloroquine resistant strain (W2)
Test: activity against chloroquine resistant strain of the malaria parasite
Assay type: cell-based, Plasmodium falciparum
Conditions: compared with control drug
Source text: 3-[1-(2-pyridyl)ethylidene]hydrazinecarbodithioate have moderate potency against falcipain-2 (FP-2) and falcipain-3 (FP-3) cysteine protease enzymes from the malaria parasite plasmodium falciparum while they portray enormous potency against the chloroquine resistant strain (W2) of the parasite. This patent describes the synthesis, characterization and biological results of metal complexes containing deprotonated 3-[1-(2-pyridyl) ethylidene] hydrazinecarbodithioate ligand (FIG. 1). The metal complex were synthesized and recrystallized. The biological activities (nanomolar) of the metal complex against malaria parasites were tested and tabled as table 2 in FIG. 6 of the drawings. The metal potency was far much greater than the control drug with respect to W-2 . This observation is extremely important as malaria resistance against the chloroquine drug is a great challenge today. This metal complex may act as lead compounds for developing future malaria drugs . […] The potency of cadmium is greatest with respect to W-2 compared to other metals as well as the control drug. The metal complex ZnL(LH)Cl containing the deprotonated dithioester L- have been synthesized and charachterized by elemental analysis, mass spectrometry, proton NMR and Fourier transform IR. The ligand LH undergoes tautomerism which can readily get ionized to generate a deprotonated ligand L-. […]

[Cd] [cadmium]
potency against W-2 in words / activity sequence versus control: greatest

— patent US20130158267A1, “METHOD OF SYNTHESIZING THE COMPLEX [ZN(NNS)2] ACTIVE AGAINST THE MALARIA PARASITE PLASMODIUM” (priority 2010, published 2013)
